Data: patent publication US20250345283A1, “MACROPHAGE-DERIVED ENGINEERED VESICLES FOR TARGETED DELIVERY AND TREATMENT” (University of Kentucky Research Foundation, priority 2020, published 2025)

Assays:
A549 cells = assay: A549 cell viability (alamar blue) after cisplatin-loaded A549 vesicles or free cisplatin; type: cell-based, human; details: cisplatin 3 μg
Procedure: A549 cells (60 million) were used to generate vesicles for delivery. Cells were scraped from culture in 20 mL of sucrose buffer containing protease inhibitor. The cell solution was collected in a 50 mL conical tube and pelleted at 2000 rpm at 25° C. for 2 min. The solution was aspirated off, and the pellet was resuspended in 8 mL of 8.33 mM cisplatin in sucrose buffer solution or 20 mg cisplatin/8 mL sucrose buffer solution plus protease inhibitor. The cell solution was fragmented using N2 cavitation at 300 psi at 4° C. for 5 min. The resulting cell slurry was centrifuged at 4000 g for 10 min at 4° C. The supernatant from centrifugation was transferred to a 25 mL ultracentrifuge tube for 10,000 g centrifugation for 20 min at 4° C. The supernatant from the UCF tube was then transferred to a new 25 mL ultracentrifuge tube and centrifuged at 100,000 g for 60 min at 4° C. The pellet in the UCF tube was washed with 500 μL of sucrose solution, and the residual solution was pipetted out and discarded. Seven hundred fifty microliters of sucrose buffer solution was added to the UCF tube, and the pellet was resuspended via pipetting. Empty vesicles were generated in the exact same way except in the absence of cisplatin. A549 cells (30,000) were plated in each well of a 96-well plate and allowed to seed for 24 h. During that time, the growth media was exchanged for 250 μL of fresh HEK media containing either cisplatin in solution (4.17 mM), cisplatin-loaded vesicles, empty vesicles, or untreated media cisplatin solution in HEK media. The media was aspirated off. Two hundred microliters of Optimem was added followed by 20 μL of alamar blue. […] The plate was read using a FlexStation plate reader. […] Cell viability was determined using a fluorescence assay (alamar blue), where the fluorescence intensity scales with the population of live cells. […] Vesicles were then added to A549 cells in culture, and the cell proliferation was compared to cells alone and those in the presence of free cisplatin in solution at the same levels (3 μg) as were measured in the vesicle solution. […]

A549 xenograft [1] = assay: In vivo targeting of DiR-labeled cell-derived vesicles, IVIS imaging; design: species or system mouse; details: tail vein injection, imaging 24 h postinjection
Procedure: Athymic nude mice were injected with A549 cells (NSCLC, immortalized) in the right shoulder and monitored for 3-4 weeks until measurable xenograft tumors were observed. RAW cells were cultured in vitro by standard methods. Cell-derived vesicles were manufactured by the Richards lab as described above and loaded with DiR near-infrared fluorescent dye. Prepared vesicles were administered, and mice were then imaged approximately 24, 48, and 72 hours later. Mice were anesthetized for imaging using isoflurane. Epifluorescence was measured using an IVIS Spectrum In vivo Imaging System (PerkinElmer). Vesicles were labeled with DiR near-infrared fluorescent dye, which was excited at 710 nm, with emission measured at 780 nm. Fluorescent signal intensity (i.e., total radiant efficiency) within regions of interest (ROI) were quantified using Living Image software (PerkinElmer), correcting for background fluorescence using distal site ROI within the same mouse.
RAW264.7 cells (100 million) were scraped in 40 mL of sucrose buffer solution with protease inhibitor. Vesicles were prepared as described above. The cells were labeled using DiR at 2 μM for 30 min at 37° C. Samples were injected intravenously to the mouse, through the tail vein. Approximately 1×10^11 vesicles were delivered per injection. All animal experiments were repeated three times. […]

A549 xenograft [2] = assay: In vivo delivery of DiR-labeled M1EVs to tumor xenografts, IVIS imaging; design: species or system mouse; details: 2×10^10 vesicles, tail vein, imaging 48 and 72 h post injection
Procedure: A549 cells (1×10^6) were injected subcutaneously into the interscapular region of 6-week-old athymic nude mice. The mice were monitored until palpable xenograft tumors developed greater than 200 mm3. M1EVs were generated using 100 million M1 macrophages by the procedure mentioned above. A NanoSight 300 multiple particle tracking system was used to determine the mean diameter and the concentration of MEVs. M1EVs were then labeled with the DiR near-infrared fluorescent dye. Briefly, 1 μL of 1 mM DiR was added to 199 μL of the vesicle resuspension so that the final concentration of DiR in the vesicle resuspension was 5 µM. DiR-labeled vesicles were separated from free DiR using a size exclusion PD MidiTrap column equilibrated with PBS. 100 μL of DiR-labeled M1EVs was then injected into the lateral tail vein of tumor-bearing mice. Isoflurane gas was used to anesthetize mice for imaging 72 h post injection using an IVIS Spectrum In vivo Imaging System (PerkinElmer) controlled with LivingImage software (PerkinElmer). Epifluorescence images were obtained using 710 nm excitation and 760 nm emission filters, f/stop number 4 and binning factor 4, with a 35 s exposure.
The free dye was separated from MEVs using PD Miniprep columns. […] After the tumor xenograft reached at least 100 mm3, 2×10^10 vesicles were injected through the tail vein of each of the three different mice. […]

M2 macrophages = assay: Uptake of M1EVs by M2 macrophages in the presence of dynasore; type: cell-based, mouse; details: Dynasore 80 μM
Procedure: Dynamin activity is an integral component of both endocytosis and phagocytosis. Dynasore, a dynamin inhibitor, has been widely used to study the process of internalization of exosomes from the surface of the macrophage. […] The uptake of fluorescently labeled M1EVs by M2 BMDMs was compared in the presence and absence of dynasore. Dynasore (80 μM) was added to cultured macrophages 20 min prior to the addition of labeled vesicles. M2 macrophages were left to incubate with M1EVs for 2 h and subsequently imaged by wide-field microscopy. […] The integrated density of the fluorescence signal was calculated to compare the uptake of M1EVs by M2 macrophages. […] Similar vesicle uptake control experiments were performed in the presence of the vehicle, DMSO, at an equal concentration. There was no significant effect of DMSO on the M1EV uptake process by M2 macrophages relative to the control with no DMSO or dynasore. Macrophages are well-established phagocytotic cells.

N.N.[Cl][Pt][Cl] [free cisplatin, cisplatin]
A549 cell death (A549 cells; 24 h): no apparent cell death
A549 cell death (A549 cells; 48 h): 15%
A549 cell death (A549 cells; 72 h): 50%

CCCCCCCCCCCCCCCCCCN1/C(=C/C=C/C=C/C=C/C2=[N+](CCCCCCCCCCCCCCCCCC)c3ccccc3C2(C)C)C(C)(C)c2ccccc21.[I-] [DiR]
localisation of DiR fluorescence in tumor-bearing mice (A549 xenograft [1]): nonspecific accumulation
localisation of DiR fluorescence in tumor-bearing mice (A549 xenograft [2]): nonspecific accumulation

O=C(N/N=C/c1ccc(O)c(O)c1)c1cc2ccccc2cc1O [Dynasore]
effect on cell viability of macrophages (M2 macrophages): no effect on the cell viability
reduction in uptake of vesicles relative to the control (M2 macrophages; M1EVs with M2 macrophages 2 h): 64%
